Assay results published in patent publication US20260028354A1, “TETRAHYDRONAPHTHALENE DERIVATIVES AS ESTROGEN RECEPTOR DEGRADERS” (REGENT OF THE UNIVERSITY OF MICHIGAN, priority 2022, published 2026).

Key:
[1] = Cell growth assay (WST-8) for "B" compounds; type: cell-based; details: T47D, T47D cell line; read-out: Cell growth Inhibition in T47D cell line IC50
How it was run: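 Cells seeded at 1500/well overnight, then exposed to compounds for 4 days. 10% WST-8 added for 2.5 h at 37 °C and absorbance read at 450 nm. Growth given as absorbance relative to vehicle control, from three repeats.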

ER = ER (Homo sapiens (Human), UniProt P03372); experiment: In-cell western blot analysis of ER for "B" compounds; type: cell-based; details: 16 hours, read-out: ICW DC50
How it was run: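 In-cell western: fixed cells stained with primary antibodies (2 h, RT), then anti-rabbit-680 and anti-mouse-800 secondaries (1:1000, 1 h, RT), imaged on a LI-COR plate reader. Relative ER level in treated wells expressed against untreated and DMSO-treated wells set as 100%.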

Chain of ER (P03372 whole entry): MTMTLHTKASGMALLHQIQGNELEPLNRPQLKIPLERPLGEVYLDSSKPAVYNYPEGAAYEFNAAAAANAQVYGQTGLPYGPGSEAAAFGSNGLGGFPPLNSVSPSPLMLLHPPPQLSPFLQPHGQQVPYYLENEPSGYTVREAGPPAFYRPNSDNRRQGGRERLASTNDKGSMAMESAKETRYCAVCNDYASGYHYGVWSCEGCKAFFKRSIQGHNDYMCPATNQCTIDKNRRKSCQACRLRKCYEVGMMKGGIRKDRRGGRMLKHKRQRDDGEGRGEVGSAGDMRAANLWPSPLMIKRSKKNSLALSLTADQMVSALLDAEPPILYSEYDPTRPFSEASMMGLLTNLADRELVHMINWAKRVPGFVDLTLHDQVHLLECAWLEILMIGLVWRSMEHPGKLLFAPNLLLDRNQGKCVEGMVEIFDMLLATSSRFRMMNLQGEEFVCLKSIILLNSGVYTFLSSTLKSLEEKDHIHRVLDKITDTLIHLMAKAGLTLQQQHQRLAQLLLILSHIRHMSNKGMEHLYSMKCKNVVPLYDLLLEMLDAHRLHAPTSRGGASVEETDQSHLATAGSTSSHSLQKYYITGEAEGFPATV

Row | Compound | DC50 (ER) [nM] | IC50 [1] [nM]
1 | O=C1CC[C@H](NC(=O)c2ccc3c(n2)OC[C@H]2CN(CC4CCC5(CCN(c6ccc([C@@H]7c8ccc(O)cc8CC[C@@H]7c7ccccc7)cc6)CC5)C4)CCN32)C(=O)N1 (stereo partly drawn) [Compound B365, (4aR)-N-((S)-2,6-dioxopiperidin-3-yl)-3-((8-(4-((1R,2S)-6-hydroxy-2-phenyl-1,2,3,4-tetrahydronaphthalen-1-yl)phenyl)-8-azaspiro[4.5]decan-2-yl)methyl)-1,2,3,4,4a,5-hexahydropyrazino[1,2-d]pyrido[2,3-b][1,4]oxazine-8-carboxamide] | 10 to 100 | > 10
2 | O=C1CC[C@H](NC(=O)c2ccc3c(c2)OC[C@H]2CN(CC4CCN(c5ccc([C@@H]6c7ccc(O)cc7CC[C@@H]6c6ccccc6)cc5)CC4)CCN32)C(=O)N1 [Compound B256, (R)-N-((S)-2,6-dioxopiperidin-3-yl)-3-((1-(4-((1R,2S)-6-hydroxy-2-phenyl-1,2,3,4-tetrahydronaphthalen-1-yl)phenyl)piperidin-4-yl)methyl)-1,2,3,4,4a,5-hexahydrobenzo[b]pyrazino[1,2-d][1,4]oxazine-8-carboxamide] | 10 to 100 | 1 to 10
3 | O=C1CC[C@H](NC(=O)c2ccc(N3CCN(CC4CCN(c5ccc([C@@H]6c7ccc(O)cc7CC[C@@H]6c6ccccc6)cc5)CC4)CC3)cc2)C(=O)N1 [Compound B315, N-((S)-2,6-dioxopiperidin-3-yl)-4-(4-((1-(4-((1R,2S)-6-hydroxy-2-phenyl-1,2,3,4-tetrahydronaphthalen-1-yl)phenyl)piperidin-4-yl)methyl)piperazin-1-yl)benzamide] | > 100 | 1 to 10

Further lines, with some results ahead:

Row | DC50 (ER) [nM] | Compound | IC50 [1] [nM]
4 | < 10 | O=C1CCC(N2Cc3cc4c(cc3C2=O)OC[C@@H]2CN(CC(=O)N3CC5(CCN(c6ccc([C@@H]7c8ccc(O)cc8CC[C@@H]7c7ccccc7)cc6)CC5)C3)CCN42)C(=O)N1 (stereo partly drawn) [Compound B143, 3-((S)-3-(2-(7-(4-((1R,2S)-6-hydroxy-2-phenyl-1,2,3,4-tetrahydronaphthalen-1-yl)phenyl)-2,7-diazaspiro[3.5]nonan-2-yl)-2-oxoethyl)-8-oxo-1,2,3,4,4a,5,8,10-octahydro-9H-pyrazino[1′,2′: 4,5][1,4]oxazino[2,3-f]isoindol-9-yl)piperidine-2,6-dione] | < 1
5 | 10 to 100 | O=C1CCC(N2Cc3c(ccc4c3OC[C@H]3CN(C[C@H]5CCN(c6ccc([C@@H]7c8ccc(O)cc8CC[C@@H]7c7ccccc7)cc6)C5)CCN43)C2=O)C(=O)N1 (stereo partly drawn) [Compound B216, 3-((R)-7-(((R)-1-(4-((1R,2S)-6-hydroxy-2-phenyl-1,2,3,4-tetrahydronaphthalen-1-yl)phenyl)pyrrolidin-3-yl)methyl)-1-oxo-1,3,5,5a,6,7,8,9-octahydro-2H-pyrazino[1′,2′:4,5][1,4]oxazino[2,3-e]isoindol-2-yl)piperidine-2,6-dione] | > 10
6 | < 10 | O=C1CCC(N2Cc3cc4c(cc3C2=O)OC[C@@H]2CN(CC(=O)OC3CCN(c5ccc([C@@H]6c7ccc(O)cc7CC[C@@H]6c6ccccc6)cc5)CC3)CCN42)C(=O)N1 (stereo partly drawn) [Compound B342, 1-(4-((1R,2S)-6-hydroxy-2-phenyl-1,2,3,4-tetrahydronaphthalen-1-yl)phenyl)piperidin-4-yl 2-((4aS)-9-(2,6-dioxopiperidin-3-yl)-8-oxo-1,2,4a,5,9,10-hexahydro-8H-pyrazino[1′,2′:4,5][1,4]oxazino[2,3-f]isoindol-3(4H)-yl)acetate] | 1 to 10
7 | 10 to 100 | O=C1CCC(N2Cc3cc4c(cc3C2=O)OC[C@@H]2CN(CC3CCC5(C3)CN(c3ccc([C@@H]6c7ccc(O)cc7CC[C@@H]6c6ccccc6)cc3)C5)CCN42)C(=O)N1 (stereo partly drawn) [Compound B358, 3-((4aS)-3-((2-(4-((1R,2S)-6-hydroxy-2-phenyl-1,2,3,4-tetrahydronaphthalen-1-yl)phenyl)-2-azaspiro[3.4]octan-6-yl)methyl)-8-oxo-1,2,3,4,4a,5,8,10-octahydro-9H-pyrazino[1′,2′:4,5][1,4]oxazino[2,3-f]isoindol-9-yl)piperidine-2,6-dione] | > 10
